Assay results taken from publication PMC4136699 (ACS Chemical Biology, 2014).
Where a SMILES comes first, the peptide text is derived from it. The star is where a group is joined. Dansyl = CN(C)c1cccc2c(S(=O)(=O)*)cccc12

Experiments:
CaPFTase = experiment: Continuous fluorescence kinetic assay of dansylated Ds-GCa1a2X peptides; type: biochemical, Candida albicans; settings: greater with CaPFTase, Table S4
yPFTase = molecular target: T1, yPFTase (Saccharomyces cerevisiae, UniProt P22007+P29703); experiment: as above; type: biochemical; settings: greater with yPFTase, Table S4
T1 sequence (P22007 1-431): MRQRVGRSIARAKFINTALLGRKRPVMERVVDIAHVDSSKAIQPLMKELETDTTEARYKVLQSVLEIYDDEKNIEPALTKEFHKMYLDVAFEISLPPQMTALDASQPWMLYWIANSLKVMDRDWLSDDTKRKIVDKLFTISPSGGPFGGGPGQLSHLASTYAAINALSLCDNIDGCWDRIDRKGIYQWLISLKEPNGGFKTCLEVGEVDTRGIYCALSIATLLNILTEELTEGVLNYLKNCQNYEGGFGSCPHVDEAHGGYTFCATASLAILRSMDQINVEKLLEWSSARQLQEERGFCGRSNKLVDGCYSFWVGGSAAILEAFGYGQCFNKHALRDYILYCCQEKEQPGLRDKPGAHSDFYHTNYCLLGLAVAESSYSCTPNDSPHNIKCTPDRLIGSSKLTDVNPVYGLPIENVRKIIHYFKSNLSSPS
T1 sequence (P29703 1-316 partner): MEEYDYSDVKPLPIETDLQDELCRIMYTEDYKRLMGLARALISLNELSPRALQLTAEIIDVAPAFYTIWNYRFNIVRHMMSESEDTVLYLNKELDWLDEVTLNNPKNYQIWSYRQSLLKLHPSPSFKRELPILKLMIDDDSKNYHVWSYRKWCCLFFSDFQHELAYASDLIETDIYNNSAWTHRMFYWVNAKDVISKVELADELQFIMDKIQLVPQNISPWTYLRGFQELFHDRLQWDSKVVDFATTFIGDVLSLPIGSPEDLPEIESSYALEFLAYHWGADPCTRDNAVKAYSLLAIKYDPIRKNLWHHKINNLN

| Compound | kcat/KM of CaPFTase compared with rPFTase (CaPFTase) [fold] | kcat/KM of yPFTase compared with rPFTase (yPFTase) [fold] |
| --- | --- | --- |
| CC(C)[C@H](NC(=O)[C@@H](NC(=O)[C@@H](NC(=O)[C@H](CS)NC(=O)CNS(=O)(=O)c1cccc2c(N(C)C)cccc12)C(C)C)C(C)C)C(=O)O [Ds-GCVVV] (Dansyl-GCVVV-OH) | 6.2 | – |
| Ds-GCVTN | – | 11 |
